From patent US7438931B2, “Methods and compositions for the treatment of angiogenic diseases” (The Regents of The University of Michigan, priority 1998, dated 2008)
“And” between values parts separate entries of the source, which are not always exact repeats. Identical values can stand only once.

Experiments:
copper toxicity = conditions: late stages of liver disease; cited from earlier work
[1] = for eight weeks; cited from earlier work

Procedure for mammary tumors: The time of onset of tumors and the quality and quantity of tumor vessels between the treatment and control groups were compared.
The percentage of disease-free mice in the untreated control group was compared to a group of the same transgenic mice treated with 0.5-1.0 mg TM by gavage daily, starting at 100 days of age.

tetrathiomolybdate [TM]
development of clinically overt tumors (mammary tumors; 0.5-1.0 mg TM by gavage daily from 100 days of age, median follow-up of 260 days): none of the TM-treated mice developed clinically overt tumors | maximum tolerated dose (MTD) (mammary tumors; adult mice (average weight 32 grams), prolonged treatment): 1.0 mg/day | outcome at higher doses (mammary tumors; animals who received 1.25-1.5 mg): died after 1-3 weeks of therapy | shrinkage of well established mammary tumors (mammary tumors; control animals treated after tumors >1.5 cm, 2 of 3 cases): 25% and 50% | anemia (mammary tumors; copper (Cp) decreased to below 40% of baseline): no anemia observed | toxicity (mammary tumors; copper levels decreased to 10% of baseline): no clinically overt toxicity | time to clinically overt mammary tumors after release from treatment (mammary tumors; cross-over group, previously disease-free): ≤ 18 days | vascularization of micro-tumors in mammary glands (mammary tumors; microscopic analyses of TM-treated mice): none of the micro-tumors of the treated mice were vascularized | ceruloplasmin (Cp) (mammary tumors; treatment group): below 40 % of baseline | efficacy against copper toxicity (copper toxicity): very effective in treating these animals in the late stages of their liver disease | potency retained in gelatin capsules [1]: at least 90% | water solubility (Water solubility): moderately water soluble
